Twelve molecules from ChEMBL document CHEMBL1201862, “PubChem BioAssay data set” (2004) can be followed below.

Among the test systems are SK-MEL-28; MDA-MB-231; M14; HL-60; HCC 2998; HOP-62; SN12C; NCI-H23; CCRF-CEM; HCT-15; PC-3; T47D; RPMI-8226; OVCAR-5; HCT-116; SK-MEL-2; UO-31; U-251; NCI-H460; BT-549.
Assay in all cases: NCI anticancer screen, dose series, 48 h

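96-well plates; 48 h exposure; 5 concentrations. Endpoints by linear interpolation between flanking doses. Not reached: highest tested concentration assigned. Here, GI50 denotes the concentration required for 50% inhibition of growth.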 Calls of active or inactive are those of the source. Cut-off read from the data, not from the text of the source: active = GI50 up to about 1.1 µM and inactive = higher. Bounds are passed on as bounds.

As for `CCCC(=O)OC1=C(c2ccccc2)Sc2ccccc2-n2cccc21`, the GI50 in the assay on SK-MEL-28, in the assay on MDA-MB-231, in the assay with M14, in the assay on HL-60, in the assay on HCC 2998 and in the assay with HOP-62 was > 10 µM (inactive) throughout. In addition, the GI50 with SN12C is > 10 µM (inactive); in the assay with NCI-H23, > 10 µM (inactive); in the assay with CCRF-CEM, > 10 µM (inactive); in the assay with HCT-15, more than 10 µM; in the assay on PC-3, > 10 µM (inactive); in the assay with T47D it was > 10 µM (inactive). Also, the GI50 in the assay with RPMI-8226 was > 10 µM (inactive).
Consider `O=S1(=O)OCCOS(=O)(=O)C1(F)Br`, for which the GI50 in the assay with SK-MEL-28, in the assay with OVCAR-5, in the assay on M14, in the assay with HL-60, in the assay with HCC 2998 and in the assay with HCT-116 was > 100 µM (inactive) each time. Besides, the GI50 in the assay on HOP-62 is > 100 µM (inactive); in the assay with SN12C, > 100 µM (inactive); in the assay with NCI-H23 it was > 100 µM (inactive); in the assay on CCRF-CEM, > 100 µM (inactive); in the assay with HCT-15, more than 100 µM; with PC-3 it was > 100 µM (inactive). Further, the GI50 in the assay on SK-MEL-2, with UO-31, with U-251, in the assay on T47D and in the assay on RPMI-8226 was > 100 µM (inactive) each time.
Turning to `N#Cc1nc(-c2ccccc2C(=O)O)oc1N`, the GI50 with SK-MEL-28, in the assay on MDA-MB-231, with OVCAR-5, in the assay with M14, with HL-60 and in the assay on HCC 2998 was > 100 µM (inactive) throughout. For the same molecule, the GI50 with HCT-116 is > 100 µM (inactive); with HOP-62 it was > 100 µM (inactive); in the assay with SN12C, > 100 µM (inactive); with NCI-H23 it was > 100 µM (inactive); with CCRF-CEM, > 100 µM (inactive); in the assay with HCT-15, more than 100 µM. Besides, the GI50 with PC-3, in the assay on SK-MEL-2, in the assay with UO-31, in the assay on U-251, in the assay on T47D and with NCI-H460 was > 100 µM (inactive) throughout. For the same molecule, the GI50 with RPMI-8226 is > 100 µM (inactive).
Regarding `CNC1=Nc2ccc(Cl)cc2C(c2ccccc2)=NN1C`, the GI50 is > 100 µM (inactive) in the assay with SK-MEL-28; > 100 µM (inactive) in the assay with OVCAR-5; > 100 µM (inactive) in the assay with M14; 46 µM (inactive) in the assay on HL-60; 24.9 µM (inactive) with HCC 2998; 66.7 µM (inactive) in the assay with HCT-116. For the same molecule, the GI50 is > 100 µM (inactive) in the assay with HOP-62; > 100 µM (inactive) with SN12C; > 100 µM (inactive) with NCI-H23; 83.8 µM (inactive) in the assay on CCRF-CEM; more than 100 µM with HCT-15; 73.5 µM (inactive) in the assay on SK-MEL-2. Also, the GI50 with UO-31 was 35.5 µM (inactive); in the assay with U-251, > 100 µM (inactive); in the assay on NCI-H460 it was > 100 µM (inactive); in the assay on RPMI-8226 it was 31.3 µM (inactive).
In the case of `O=C1NC(=S)NC(=O)C1=Cc1ccc[nH]1`, the GI50 in the assay with SK-MEL-28 is 24.5 µM (inactive); with OVCAR-5, 23.2 µM (inactive); in the assay on M14, 21 µM (inactive); in the assay with HL-60, 5.27 µM (inactive); with HCC 2998, 11.8 µM (inactive); in the assay with HCT-116, 3.48 µM (inactive). For the same molecule, the GI50 was 32.6 µM (inactive) in the assay on HOP-62; 10.6 µM (inactive) in the assay with SN12C; 12.4 µM (inactive) with NCI-H23; 19.2 µM (inactive) with CCRF-CEM; 2.87 µM with HCT-15; 19.7 µM (inactive) with SK-MEL-2. Also, the GI50 in the assay on UO-31 is 16.6 µM (inactive); with U-251 it was 27.1 µM (inactive); in the assay on NCI-H460, 8.11 µM (inactive); in the assay with RPMI-8226, 3.41 µM (inactive).
As to `CN/C(=N/C#N)NCc1ccccc1`, the GI50 is > 100 µM (inactive) with SK-MEL-28; > 100 µM (inactive) in the assay with OVCAR-5; > 100 µM (inactive) in the assay with M14; > 100 µM (inactive) in the assay on HL-60; 27.4 µM (inactive) in the assay with HCC 2998; > 100 µM (inactive) in the assay on HCT-116. The GI50 in the assay on HOP-62 was > 100 µM (inactive); in the assay on SN12C it was > 100 µM (inactive); in the assay on NCI-H23, > 100 µM (inactive); in the assay with CCRF-CEM it was > 100 µM (inactive); in the assay on HCT-15, more than 100 µM; with SK-MEL-2, > 100 µM (inactive). For the same molecule, the GI50 in the assay with UO-31, in the assay with U-251, with NCI-H460 and with RPMI-8226 was > 100 µM (inactive) in each case.
On to `CNc1nnc(CCCCCCCCc2nnc(NC)o2)o1`, for which the GI50 in the assay on SK-MEL-28 was > 100 µM (inactive); in the assay on MDA-MB-231 it was > 100 µM (inactive); in the assay on OVCAR-5, > 100 µM (inactive); in the assay on M14 it was > 100 µM (inactive); in the assay with HL-60 it was 32.4 µM (inactive); with HCT-116, 20.3 µM (inactive). Also, the GI50 in the assay on BT-549 is > 100 µM (inactive); in the assay on HOP-62 it was 35.3 µM (inactive); in the assay with SN12C, > 100 µM (inactive); in the assay with NCI-H23, > 100 µM (inactive); in the assay on CCRF-CEM, 16.2 µM (inactive); in the assay with HCT-15 it was 27.8 µM. In addition, the GI50 in the assay with PC-3 was > 100 µM (inactive); with SK-MEL-2, > 100 µM (inactive); in the assay on UO-31, > 100 µM (inactive); in the assay on U-251, 22.2 µM (inactive); in the assay on NCI-H460, 42 µM (inactive).
On to `Cc1cc(=O)oc2c(CNC(C)C(=O)O)c(O)ccc12` (stereo unspecified), for which the GI50 in the assay on SK-MEL-28, in the assay on MDA-MB-231, in the assay on OVCAR-5, with M14, in the assay with HL-60 and in the assay with HCC 2998 was > 100 µM (inactive) in each case. Further, the GI50 was 71.4 µM (inactive) in the assay on HCT-116; > 100 µM (inactive) in the assay on HOP-62; > 100 µM (inactive) in the assay on SN12C; > 100 µM (inactive) in the assay with NCI-H23; > 100 µM (inactive) with CCRF-CEM; more than 100 µM in the assay on HCT-15. The GI50 with PC-3 was > 100 µM (inactive); in the assay on SK-MEL-2, > 100 µM (inactive); in the assay with UO-31 it was 36.9 µM (inactive); in the assay on U-251, > 100 µM (inactive); in the assay on T47D, > 100 µM (inactive); in the assay on NCI-H460, > 100 µM (inactive). For the same molecule, the GI50 in the assay with RPMI-8226 was > 100 µM (inactive).
For the molecule `COc1ccc2nc(/C(N)=C\C#N)ccc2c1`, the GI50 in the assay with SK-MEL-28 was > 100 µM (inactive); in the assay on MDA-MB-231 it was > 100 µM (inactive); in the assay with OVCAR-5 it was > 100 µM (inactive); in the assay with M14 it was 42.1 µM (inactive); in the assay on HL-60, 18 µM (inactive); with HCT-116, 20.3 µM (inactive). Besides, the GI50 is > 100 µM (inactive) in the assay with HOP-62; 57.5 µM (inactive) in the assay on SN12C; 90.2 µM (inactive) in the assay on NCI-H23; 40.3 µM (inactive) in the assay on CCRF-CEM; more than 100 µM with HCT-15; 43.7 µM (inactive) with PC-3. The GI50 with SK-MEL-2 was 49.5 µM (inactive); in the assay on UO-31, 32.8 µM (inactive); with U-251, 60.5 µM (inactive); in the assay with T47D, 30.9 µM (inactive); in the assay with NCI-H460, > 100 µM (inactive); with RPMI-8226, 37.5 µM (inactive).
For the molecule `Cc1cccc(-c2cc(=O)c3cc(C)c(C)c(C(=O)O)c3o2)c1`, the GI50 in the assay with SK-MEL-28, in the assay on OVCAR-5, with M14, in the assay on HL-60, with HCC 2998 and in the assay on HCT-116 was > 100 µM (inactive) each time. Besides, the GI50 with HOP-62 is > 100 µM (inactive); with SN12C, > 100 µM (inactive); with NCI-H23, > 100 µM (inactive); in the assay with CCRF-CEM, > 100 µM (inactive); in the assay on HCT-15 it was more than 100 µM; in the assay on SK-MEL-2 it was > 100 µM (inactive). Moreover, the GI50 with UO-31, with U-251, in the assay with NCI-H460 and in the assay with RPMI-8226 was > 100 µM (inactive) in each case.
As to `COc1ccc(OC)c(C2CCCc3c2cnc2nc(N)nc(N)c32)c1` (stereo unspecified), the GI50 with SK-MEL-28 is > 100 µM (inactive); in the assay with MDA-MB-231, > 100 µM (inactive); with M14, < 0.01 µM (active); with HL-60, < 0.01 µM (active); in the assay with HCC 2998 it was < 0.01 µM (active); in the assay on HCT-116 it was < 0.01 µM (active). Further, the GI50 in the assay on SN12C is < 0.01 µM (active); in the assay with NCI-H23, < 0.01 µM (active); with HCT-15, less than 0.01 µM; in the assay on PC-3 it was > 71.1 µM (inactive); in the assay with SK-MEL-2, > 100 µM (inactive); in the assay on NCI-H460 it was < 0.01 µM (active). The GI50 in the assay on RPMI-8226 was 0.0695 µM (active).
For `Cc1[nH]c2ccccc2c1C(=O)CC1(O)C(=O)Nc2c(Cl)cc(Cl)cc21` (stereo unspecified), the GI50 in the assay on SK-MEL-28 is 27 µM (inactive); with OVCAR-5 it was 24 µM (inactive); in the assay on M14, 21.5 µM (inactive); in the assay with HL-60 it was 14.6 µM (inactive); in the assay on HCC 2998, 51.6 µM (inactive); with HCT-116, 35.1 µM (inactive). Further, the GI50 is 46.9 µM (inactive) in the assay with HOP-62; 24.8 µM (inactive) in the assay on SN12C; 19.5 µM (inactive) in the assay with NCI-H23; 20.3 µM (inactive) in the assay on CCRF-CEM; 40.5 µM in the assay on HCT-15; 28.6 µM (inactive) in the assay with SK-MEL-2. The GI50 is 26.3 µM (inactive) in the assay with UO-31, 30.1 µM (inactive) in the assay on U-251, 48.9 µM (inactive) in the assay with NCI-H460 and 25.5 µM (inactive) in the assay on RPMI-8226.
